Key:
PPARα = biological target: T1, PPARα (Homo sapiens, UniProt Q07869); conditions: Leesnitzer et al.; cited from earlier work
T1 sequence (Q07869 1-468): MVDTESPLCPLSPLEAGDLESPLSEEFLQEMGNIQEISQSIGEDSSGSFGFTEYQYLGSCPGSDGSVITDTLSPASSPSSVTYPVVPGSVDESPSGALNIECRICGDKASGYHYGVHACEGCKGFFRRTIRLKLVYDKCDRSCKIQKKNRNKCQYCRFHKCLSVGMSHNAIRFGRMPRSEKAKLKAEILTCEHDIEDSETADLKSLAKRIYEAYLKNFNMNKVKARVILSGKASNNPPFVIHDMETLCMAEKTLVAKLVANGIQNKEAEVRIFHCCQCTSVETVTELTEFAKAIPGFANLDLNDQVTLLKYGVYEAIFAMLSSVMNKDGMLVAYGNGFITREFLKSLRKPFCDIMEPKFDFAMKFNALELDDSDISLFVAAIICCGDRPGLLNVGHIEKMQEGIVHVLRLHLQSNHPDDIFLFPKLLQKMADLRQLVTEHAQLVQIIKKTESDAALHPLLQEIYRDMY

PPARδ = biological target: T2, PPARδ (Homo sapiens, UniProt Q03181); conditions: Leesnitzer et al.; cited from earlier work
T2 sequence (Q03181 1-441): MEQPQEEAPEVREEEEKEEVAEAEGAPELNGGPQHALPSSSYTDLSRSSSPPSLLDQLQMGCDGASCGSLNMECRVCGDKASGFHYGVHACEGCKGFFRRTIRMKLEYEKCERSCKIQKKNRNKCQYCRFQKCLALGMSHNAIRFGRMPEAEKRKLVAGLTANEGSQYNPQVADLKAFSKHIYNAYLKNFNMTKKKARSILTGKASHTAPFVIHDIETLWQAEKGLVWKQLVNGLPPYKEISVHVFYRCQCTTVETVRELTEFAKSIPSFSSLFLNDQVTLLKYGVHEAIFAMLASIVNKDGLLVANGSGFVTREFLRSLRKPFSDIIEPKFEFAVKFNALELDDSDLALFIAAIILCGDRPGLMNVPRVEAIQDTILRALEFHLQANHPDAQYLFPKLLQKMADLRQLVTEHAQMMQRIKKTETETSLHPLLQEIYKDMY

PGRN mRNA = conditions: myeloid cells, Ong et al.; cited from earlier work
PGRN polypeptide [1] = experiment: PGRN polypeptide levels in cell lysates and culture supernatants of treated M17 cells, Western blotting; format: cell-based, human; conditions: M17 cells, ibuprofen 1 to 5 μM
Protocol: Cell cultures were maintained in standard cell culture media supplemented with 5% fetal bovine serum and 100 U/mL penicillin/streptomycin (Life Technologies, Karlsruhe, Germany). Cell cultures consisted of Chinese hamster ovary (CHO) cells; human HeLa cells (HeLa); BE(2)-M17, human neuroblastoma (M17); […] The following PPAR activators were dissolved in DMSO: ciglitazone (Calbiochem, San Diego, Calif.), fenofibrate (Sigma-Aldrich, Saint Louis, Mo.), clofibrate (Calbiochem), and L165041 (Calbiochem). Cells were cultured in serum-containing media and treated for 24 hours in serum-free media with a specific PPAR agonist. Curcumin (Sigma-Aldrich) and resveratrol (Sigma-Aldrich) were dissolved in DMSO. Cells were cultured in serum-containing media and treated for 24 hours in serum-free media with curcumin or resveratrol. Antibodies that were used included a monoclonal human progranulin antibody (Zymed, South San Francisco, Calif.) directed against full length progranulin polypeptide, a mouse progranulin antibody (R&D Systems, Minneapolis, Minn.) directed against full length progranulin polypeptide, and an anti-GAPDH antibody (Sigma-Aldrich). Cell cultures were treated with increasing concentrations of the PPARα activator clofibrate or with DMSO. Levels of PGRN polypeptide in culture supernatants and in cell lysates were analyzed using Western blotting. The levels of intracellular and secreted forms of PGRN polypeptide were compared in clofibrate treated M17 cell cultures and DMSO treated M17 cell cultures (FIG. 20).

PGRN polypeptide [2] = experiment: PGRN polypeptide levels in cell lysates and culture supernatants of treated HeLa cells, Western blotting; format: cell-based, human; conditions: 1.25 to 20 micromolar ibuprofen, 24 hours, vs DMSO
Protocol: Cell cultures were maintained in standard cell culture media supplemented with 5% fetal bovine serum and 100 U/mL penicillin/streptomycin (Life Technologies, Karlsruhe, Germany). Cell cultures consisted of Chinese hamster ovary (CHO) cells; human HeLa cells (HeLa); BE(2)-M17, human neuroblastoma (M17); N2A, mouse neuroblastoma; and human lymphoblasts.
The following NSAIDs were dissolved in the vehicle DMSO: ibuprofen (Biomol, Plymouth Meeting, Pa.), indomethacin (Biomol), diclofenac (Cayman Chemical, Ann Arbor, Mich.), naproxen (Cayman Chemical), and aspirin (ICN Biomedicals, Irvine, Calif.). Cells were cultured in serum-containing media and treated for 24 hours in serum-free media with a specific NSAID. NSAID toxicity was examined using a standard MTT-assay (3-(4,5-Dimethyl-2-thiazolylyl)-2,5-diphenyl-2H-tetrazolium Bromide). For cell toxicity studies, cells were treated with NSAIDS at concentrations up to 100 micromolar.
Antibodies that were used included a monoclonal human progranulin antibody (Zymed, South San Francisco, Calif.) directed against full length progranulin polypeptide, a mouse progranulin antibody (R&D Systems, Minneapolis, Minn.) directed against full length progranulin polypeptide, and an anti-GAPDH antibody (Sigma-Aldrich).
HeLa cell cultures (N=4 for all studies) were treated with various concentrations of NSAIDs, including ibuprofen, naproxen, indomethacin, meclofenamic acid, and acetylsalicylic acid for 24 hours in serum free media. Levels of PGRN polypeptide in culture supernatants and in cell lysates were analyzed using Western blotting.

GAPDH polypeptide = GAPDH polypeptide expression in treated HeLa cells, Western blot; format: cell-based, human; conditions: ibuprofen treatment
PGRN polypeptide [3] = experiment: PGRN polypeptide levels in treated N2A mouse neuroblastoma cells; format: cell-based; conditions: N2A cells, ibuprofen 1 to 5 μM
Protocol: Cell cultures were maintained in standard cell culture media supplemented with 5% fetal bovine serum and 100 U/mL penicillin/streptomycin (Life Technologies, Karlsruhe, Germany). Cell cultures consisted of Chinese hamster ovary (CHO) cells; human HeLa cells (HeLa); BE(2)-M17, human neuroblastoma (M17); […] The following NSAIDs were dissolved in the vehicle DMSO: ibuprofen (Biomol, Plymouth Meeting, Pa.), indomethacin (Biomol), diclofenac (Cayman Chemical, Ann Arbor, Mich.), naproxen (Cayman Chemical), and aspirin (ICN Biomedicals, Irvine, Calif.). Cells were cultured in serum-containing media and treated for 24 hours in serum-free media with a specific NSAID. […] For cell toxicity studies, cells were treated with NSAIDS at concentrations up to 100 micromolar. The following PPAR activators were dissolved in DMSO: ciglitazone (Calbiochem, San Diego, Calif.), fenofibrate (Sigma-Aldrich, Saint Louis, Mo.), clofibrate (Calbiochem), and L165041 (Calbiochem). Cells were cultured in serum-containing media and treated for 24 hours in serum-free media with a specific PPAR agonist. […]

PGRN polypeptide [4] = experiment: PGRN polypeptide expression in HeLa cells by immunohistochemistry; format: cell-based, human; conditions: ibuprofen 2.5 μM for 24 hours, vs untreated
Protocol: Treated and untreated HeLa cells were analyzed for PGRN polypeptide expression using immunohistochemistry. […] Levels of PGRN polypeptide in cell culture supernatants and cell lysates of HeLa cells treated with various concentrations of ibuprofen were compared to corresponding PGRN polypeptide levels in HeLa cells treated with DMSO (FIG. 26).

PPARγ = biological target: T3, PPARγ (Homo sapiens, UniProt P37231); conditions: highly selective agonist, commercial vendors; cited from earlier work
T3 sequence (P37231 1-505): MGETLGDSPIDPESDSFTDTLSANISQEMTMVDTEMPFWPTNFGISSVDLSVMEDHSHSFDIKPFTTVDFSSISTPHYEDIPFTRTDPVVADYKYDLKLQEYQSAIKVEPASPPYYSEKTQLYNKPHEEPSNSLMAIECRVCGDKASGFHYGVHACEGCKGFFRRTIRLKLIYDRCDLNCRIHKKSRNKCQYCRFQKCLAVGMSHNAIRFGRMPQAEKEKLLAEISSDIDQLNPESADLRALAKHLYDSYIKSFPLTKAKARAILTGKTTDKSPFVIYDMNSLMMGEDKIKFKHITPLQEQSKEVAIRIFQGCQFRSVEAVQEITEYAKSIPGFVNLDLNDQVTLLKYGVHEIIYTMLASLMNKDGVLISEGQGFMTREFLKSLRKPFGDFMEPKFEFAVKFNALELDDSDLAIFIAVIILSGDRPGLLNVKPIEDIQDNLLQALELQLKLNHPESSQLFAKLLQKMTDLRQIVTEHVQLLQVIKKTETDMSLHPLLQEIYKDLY

O=C(Nc1ccccc1)c1cc([N+](=O)[O-])ccc1Cl [GW9662, 2-Chloro-5-nitro-N-phenylbenzamide]
block of PPARα receptors (PPARα): low nM range | block of PPARδ receptors (PPARδ): low micromolar range

CC1=C(/C=C/C(C)=C/C=C/C(C)=C/C(=O)O)C(C)(C)CCC1 [all trans-retinoic acid]
PGRN mRNA level (PGRN mRNA): upregulation of PGRN mRNA

CC(C)Cc1ccc(C(C)C(=O)O)cc1 (stereo not drawn) [ibuprofen]
increase in PGRN polypeptide expression (PGRN polypeptide [1]): up to 600% | increase in the level of intracellular PGRN polypeptide (PGRN polypeptide [2]): approximately 150% | effect on GAPDH polypeptide expression (GAPDH polypeptide): No significant effect | increase in PGRN polypeptide expression (PGRN polypeptide [3]): up to 600% | PGRN polypeptide expression by immunohistochemistry (PGRN polypeptide [4]): increased PGRN polypeptide expression in the Golgi

GW1929
PPARγ agonist activity range (PPARγ): low nM range

— patent publication US9486541B2, “Detecting and treating dementia” (Mayo Foundation for Medical Education and Research, priority 2006, dated 2016)
